# ChEMBL document CHEMBL3046616, “Design, synthesis, and biological activities of milbemycin analogues” (2011)
# How the values were obtained:
# Type in all cases: functional
# [1] = system: Mythimna separata; assay: Insecticidal activity against fourth-instar larvae of Mythimna separata (Oriental armyworm) reared on compound pre-treated corn leaves assessed as insect mortality at 0.125 mg/L measured 2 days post compound dose
# [2] = system: Mythimna separata; assay: Insecticidal activity against Mythimna separata (Oriental armyworm) fourth-instar larvae reared compound pre-treated corn leaves assessed as insect mortality measured 2 days post compound dose
# [3] = system: Aphis fabae; assay: Insecticidal activity against Aphis fabae (black bean aphid) infested soybean tender shoots at 1 mg/L measured 48 hr post compound dose by modified FAO dip method
# [4] = system: Aphis fabae; assay: Insecticidal activity against Aphis fabae (black bean aphid) infested soybean tender shoots at 10 mg/L measured 48 hr post compound dose by modified FAO dip method
# [5] = system: Mythimna separata; assay: Insecticidal activity against fourth-instar larvae of Mythimna separata (Oriental armyworm) reared on compound pre-treated corn leaves assessed as insect mortality at 0.03125 mg/L measured 2 days post compound dose
# [6] = system: Aphis fabae; assay: Insecticidal activity against Aphis fabae (black bean aphid infested soybean tender shoots measured 48 hr post compound dose by modified FAO dip method
# [7] = system: Aphis fabae; assay: Insecticidal activity against Aphis fabae (black bean aphid) infested soybean tender shoots at 0.25 mg/L measured 48 hr post compound dose by modified FAO dip method
# [8] = system: Tetranychus cinnabarinus; assay: Insecticidal activity against Tetranychus cinnabarinus (carmine spider mite) […] assessed as larvicidal activity at 0.006 mg/L after 48 hr
# [9] = system: Aphis fabae; assay: Insecticidal activity against Aphis fabae (black bean aphid) infested soybean tender shoots at 0.0625 mg/L measured 48 hr post compound dose by modified FAO dip method
# [10] = system: Aphis fabae; assay: Insecticidal activity against Aphis fabae (black bean aphid) infested soybean tender shoots at 2 mg/L measured 48 hr post compound dose by modified FAO dip method
# [11] = system: Mythimna separata; assay: Insecticidal activity against Mythimna separata (Oriental armyworm) fourth-instar larvae reared compound pre-treated corn leaves assessed as insect mortality at 1 mg/L measured 2 days post compound dose
# [12] = system: Aphis fabae; assay: Insecticidal activity against Aphis fabae (black bean aphid) infested soybean tender shoots at 0.5 mg/L measured 48 hr post compound dose by modified FAO dip method
# [13] = system: Mythimna separata; assay: Insecticidal activity against Mythimna separata (Oriental armyworm) fourth-instar larvae reared compound pre-treated corn leaves assessed as insect mortality at 10 mg/L measured 2 days post compound dose
# [14] = system: Mythimna separata; assay: Insecticidal activity against Mythimna separata (Oriental armyworm) fourth-instar larvae reared compound pre-treated corn leaves assessed as insect mortality at 0.25 mg/L measured 2 days post compound dose
# [15] = system: Aphis fabae; assay: Insecticidal activity against Aphis fabae (black bean aphid) infested soybean tender shoots at 0.125 mg/L measured 48 hr post compound dose by modified FAO dip method
# [16] = system: Mythimna separata; assay: Insecticidal activity against fourth-instar larvae of Mythimna separata (Oriental armyworm) reared on compound pre-treated corn leaves assessed as insect mortality at 0.0625 mg/L measured 2 days post compound dose
# [17] = system: Mythimna separata; assay: Insecticidal activity against Mythimna separata (Oriental armyworm) fourth-instar larvae reared compound pre-treated corn leaves assessed as insect mortality at 0.5 mg/L measured 2 days post compound dose
# [18] = system: Mythimna separata; assay: Insecticidal activity against Mythimna separata (Oriental armyworm) fourth-instar larvae reared compound pre-treated corn leaves assessed as insect mortality at 2.5 mg/L measured 2 days post compound dose
# [19] = system: Aphis fabae; assay: Insecticidal activity against Aphis fabae (black bean aphid) infested soybean tender shoots at 0.625 mg/L measured 48 hr post compound dose by modified FAO dip method
# [20] = system: Aphis fabae; assay: Insecticidal activity against Aphis fabae (black bean aphid) infested soybean tender shoots at 2.5 mg/L measured 48 hr post compound dose by modified FAO dip method
# [21] = system: Mythimna separata; assay: Insecticidal activity against Mythimna separata (Oriental armyworm) fourth-instar larvae reared compound pre-treated corn leaves assessed as insect mortality at 0.625 mg/L measured 2 days post compound dose
# [22] = system: Mythimna separata; assay: Insecticidal activity against Mythimna separata (Oriental armyworm) fourth-instar larvae reared compound pre-treated corn leaves assessed as insect mortality at 200 mg/L measured 2 days post compound dose
# [23] = system: Aphis fabae; assay: Insecticidal activity against Aphis fabae (black bean aphid) infested soybean tender shoots measured 48 hr post compound dose by modified FAO dip method; set-up: concentration or dose not given beside the values
# [24] = system: Aphis fabae; assay: Insecticidal activity against bean Aphis fabae (black bean aphid) infested soybean tender shoots at 0.03125 mg/L measured 48 hr post compound dose by modified FAO dip method
Molecule,mortality at 10 µg/mL [4] [%],mortality at 0.006 µg/mL [8] [%],mortality at 10 µg/mL [13] [%],mortality at 2.5 µg/mL [18] [%],mortality at 0.625 µg/mL [19] [%],mortality at 2.5 µg/mL [20] [%],mortality at 0.625 µg/mL [21] [%],mortality [23] [%],also measured
CCC(C)[C@H]1O[C@]2(CC[C@@H]1C)C[C@@H]1C[C@@H](C/C=C(\C)[C@@H](OC(=O)C(C)(C)CC)[C@@H](C)/C=C/C=C3\CO[C@@H]4[C@H](O)C(C)=C[C@@H](C(=O)O1)[C@]34O)O2 (stereo partly specified),100,60.7,100,–,–,–,–,–,"mortality at 0.125 µg/mL [1]: 16.7%; LC50 [2]: 0.25 µg/mL; mortality at 1 µg/mL [3]: 85.4%; mortality at 0.03125 µg/mL [5]: 0%; LC50 ([6]; Aphis fabae, 48 h): 0.15 µg/mL; mortality at 0.25 µg/mL [7]: 57.6%; mortality at 0.0625 µg/mL [9]: 38%; mortality at 2 µg/mL [10]: 92.9%; mortality at 1 µg/mL [11]: 96.9%; mortality at 0.5 µg/mL [12]: 68.2%; mortality at 0.25 µg/mL [14]: 60%; mortality at 0.125 µg/mL [15]: 45.5%; mortality at 0.0625 µg/mL [16]: 0%; mortality at 0.5 µg/mL [17]: 75.2%"
IVERMECTIN,–,–,–,–,–,–,–,–,mortality [1]: 29.1%; LC50 [2]: 0.19 µg/mL; mortality [3]: 93.5%; mortality [5]: 0%; LC50 [6]: 0.06 µg/mL; LC90 [6]: 0.646 µg/mL; mortality [7]: 74.1%; mortality [8]: 57.9%; mortality [9]: 53.6%; mortality [10]: 100%; mortality [11]: 100%; mortality [12]: 89.1%; mortality [14]: 66.7%; mortality [15]: 66.3%; mortality [16]: 6.4%; mortality [17]: 90.9%
CCC(C)[C@H]1O[C@]2(CC[C@@H]1C)C[C@@H]1C[C@@H](C/C=C(\C)[C@@H](O[C@H]3C[C@H](OC)[C@@H](OC(=O)c4ccc(F)cc4)[C@H](C)O3)[C@@H](C)/C=C/C=C3\CO[C@@H]4[C@H](O)C(C)=C[C@@H](C(=O)O1)[C@]34O)O2 (stereo partly specified),100,9.9,55.8,16.7,97.1,100,0,–,–
CCC(C)[C@H]1O[C@]2(CC[C@@H]1C)C[C@@H]1C[C@@H](C/C=C(\C)[C@@H](OC(=O)c3cc(F)c(Cl)nc3Cl)[C@@H](C)/C=C/C=C3\CO[C@@H]4[C@H](O)C(C)=C[C@@H](C(=O)O1)[C@]34O)O2 (stereo partly specified),66.9,7.7,–,–,8.3,38.2,–,–,mortality at 200 µg/mL [22]: 50.9%
CCC(C)[C@H]1O[C@]2(CC[C@@H]1C)C[C@@H]1C[C@@H](C/C=C(\C)[C@@H](O[C@H]3C[C@H](OC)[C@@H](OC(=O)c4ccc(Cl)cc4)[C@H](C)O3)[C@@H](C)/C=C/C=C3\CO[C@@H]4[C@H](O)C(C)=C[C@@H](C(=O)O1)[C@]34O)O2 (stereo partly specified),–,32.3,93.9,16.7,–,–,0,100,–
CCC(C)[C@H]1O[C@]2(CC[C@@H]1C)C[C@@H]1C[C@@H](C/C=C(\C)[C@@H](OC(=O)c3ccccc3OC)[C@@H](C)/C=C/C=C3\CO[C@@H]4[C@H](O)C(C)=C[C@@H](C(=O)O1)[C@]34O)O2 (stereo partly specified),–,19.5,97,77.3,–,–,19.7,68.6,–
CCC(C)[C@H]1O[C@]2(CC[C@@H]1C)C[C@@H]1C[C@@H](C/C=C(\C)[C@@H](O[C@H]3C[C@H](OC)[C@@H](OC(=O)Cc4ccccc4)[C@H](C)O3)[C@@H](C)/C=C/C=C3\CO[C@@H]4[C@H](O)C(C)=C[C@@H](C(=O)O1)[C@]34O)O2 (stereo partly specified),–,14.3,–,–,–,–,–,–,"mortality at 0.125 µg/mL [1]: 20.5%; LC50 [2]: 0.204 µg/mL; mortality at 1 µg/mL [3]: 100%; mortality at 0.03125 µg/mL [5]: 0%; LC90 [6]: 0.742 µg/mL; LC50 ([6]; Aphis fabae, 48 h): 0.07 µg/mL; mortality at 0.25 µg/mL [7]: 65.8%; mortality at 0.03125 µg/mL [24]: 0%; mortality at 0.0625 µg/mL [9]: 3.3%; mortality at 1 µg/mL [11]: 100%; mortality at 0.5 µg/mL [12]: 86.7%; mortality at 0.25 µg/mL [14]: 60.3%; mortality at 0.125 µg/mL [15]: 31.2%; mortality at 0.0625 µg/mL [16]: 10.1%; mortality at 0.5 µg/mL [17]: 90.2%"
CCC(C)[C@H]1O[C@]2(CC[C@@H]1C)C[C@@H]1C[C@@H](C/C=C(\C)[C@@H](OC(=O)c3ccc(Cl)cc3)[C@@H](C)/C=C/C=C3\CO[C@@H]4[C@H](O)C(C)=C[C@@H](C(=O)O1)[C@]34O)O2 (stereo partly specified),–,26.9,100,24.9,–,–,0,87.9,–
CCC(C)[C@H]1O[C@]2(CC[C@@H]1C)C[C@@H]1C[C@@H](C/C=C(\C)[C@@H](O[C@H]3C[C@H](OC)[C@@H](OC(=O)Nc4cccc(C)c4)[C@H](C)O3)[C@@H](C)/C=C/C=C3\CO[C@@H]4[C@H](O)C(C)=C[C@@H](C(=O)O1)[C@]34O)O2 (stereo partly specified),100,49.2,100,98.6,88.5,100,56.3,–,–
CCC(C)[C@H]1O[C@]2(CC[C@@H]1C)C[C@@H]1C[C@@H](C/C=C(\C)[C@@H](O[C@H]3C[C@H](OC)[C@@H](OC(=O)CC(C)(C)C)[C@H](C)O3)[C@@H](C)/C=C/C=C3\CO[C@@H]4[C@H](O)C(C)=C[C@@H](C(=O)O1)[C@]34O)O2 (stereo partly specified),80.2,34.2,88.6,51.2,0,30.2,0,–,–
CCC(C)[C@H]1O[C@]2(CC[C@@H]1C)C[C@@H]1C[C@@H](C/C=C(\C)[C@@H](O[C@H]3C[C@H](OC)[C@@H](OC(=O)/C(=N\OC)c4ccccc4)[C@H](C)O3)[C@@H](C)/C=C/C=C3\CO[C@@H]4[C@H](O)C(C)=C[C@@H](C(=O)O1)[C@]34O)O2 (stereo partly specified),–,38.7,–,–,–,–,–,–,"mortality at 0.125 µg/mL [1]: 6.3%; LC50 [2]: 0.35 µg/mL; mortality at 1 µg/mL [3]: 100%; mortality at 0.03125 µg/mL [5]: 0%; LC50 ([6]; Aphis fabae, 48 h): 0.12 µg/mL; mortality at 0.25 µg/mL [7]: 34.2%; mortality at 0.0625 µg/mL [9]: 0%; mortality at 1 µg/mL [11]: 100%; mortality at 0.5 µg/mL [12]: 70%; mortality at 0.25 µg/mL [14]: 30.2%; mortality at 0.125 µg/mL [15]: 3.3%; mortality at 0.0625 µg/mL [16]: 0%; mortality at 0.5 µg/mL [17]: 80%"
CCC(C)[C@H]1O[C@]2(CC[C@@H]1C)C[C@@H]1C[C@@H](C/C=C(\C)[C@@H](O[C@H]3C[C@H](OC)[C@@H](OC(=O)c4ccccc4)[C@H](C)O3)[C@@H](C)/C=C/C=C3\CO[C@@H]4[C@H](O)C(C)=C[C@@H](C(=O)O1)[C@]34O)O2 (stereo partly specified),100,24.8,100,100,86.3,100,38.8,–,–
CCC(C)[C@H]1O[C@]2(CC[C@@H]1C)C[C@@H]1C[C@@H](C/C=C(\C)[C@@H](OC(=O)Nc3cccc(C)c3)[C@@H](C)/C=C/C=C3\CO[C@@H]4[C@H](O)C(C)=C[C@@H](C(=O)O1)[C@]34O)O2 (stereo partly specified),100,56.6,98.6,76.7,86.1,98.9,43.2,–,–
CCC(C)[C@H]1O[C@]2(CC[C@@H]1C)C[C@@H]1C[C@@H](C/C=C(\C)[C@@H](O[C@H]3C[C@H](OC)[C@@H](OC(=O)C(C)(C)CC)[C@H](C)O3)[C@@H](C)/C=C/C=C3\CO[C@@H]4[C@H](O)C(C)=C[C@@H](C(=O)O1)[C@]34O)O2 (stereo partly specified),–,39.6,–,83.6,89.1,100,0,–,–
CCC(C)[C@H]1O[C@]2(CC[C@@H]1C)C[C@@H]1C[C@@H](C/C=C(\C)[C@@H](OC(=O)C3C(C=C(Br)Br)C3(C)C)[C@@H](C)/C=C/C=C3\CO[C@@H]4[C@H](O)C(C)=C[C@@H](C(=O)O1)[C@]34O)O2 (stereo partly specified),–,32.1,–,–,–,–,–,72.9,mortality at 200 µg/mL [22]: 100%
CCC(C)[C@H]1O[C@]2(CC[C@@H]1C)C[C@@H]1C[C@@H](C/C=C(\C)[C@@H](OC(=O)C3C(C=C(Cl)Cl)C3(C)C)[C@@H](C)/C=C/C=C3\CO[C@@H]4[C@H](O)C(C)=C[C@@H](C(=O)O1)[C@]34O)O2 (stereo partly specified),–,31.7,6.7,6.4,–,–,3.3,87.9,–
